The nature of series [1]: refractive index (Na D-line) (dimensionless). The note with it: 298.15 K; 101.33 kPa; Liquid; Standard Abbe refractometry.
For series [2] the following is noted: 298.15 K; 101.33 kPa; Liquid; Vibrating tube method.

Structures are written as SMILES. Numbers after ± are expanded uncertainties.

Take `Cc1ccccc1C` [1,2-dimethylbenzene]: the refractive index in series [1] stood at 1.4945 ± 0.0008. Besides, the mass density in series [2] amounted to 859.54 ± 0.14 kg/m3.

On to `Cc1cccc(C)c1` [1,3-dimethylbenzene], for which the refractive index in series [1] is recorded as 1.4946 ± 0.0008. For the same compound, the mass density in series [2] was 859.95 ± 0.14 kg/m3.

With `Cc1ccc(C)cc1` [1,4-dimethylbenzene], in series [1], the refractive index was determined as 1.4957 ± 0.0008. Moreover, the mass density in series [2] was found to be 856.71 ± 0.14 kg/m3.

As to `CCCCCCCCCC` [decane], the refractive index in series [1] is given as 1.4108 ± 0.0008. Also, the mass density in series [2] was found to be 726.36 ± 0.17 kg/m3.
